Test results taken from ChEMBL document CHEMBL3875161, “Thiazolidin-4-ones from 4-(methylthio)benzaldehyde and 4-(methylsulfonyl)benzaldehyde: Synthesis, antiglioma activity and cytotoxicity” (Eur J Med Chem, 2016).
Activity calls are given as the source filed them. The rule behind the calls is not given here.

Tests used:
Rattus norvegicus [1] = species: Rattus norvegicus; test: Cytotoxicity against Wistar rat primary astrocytes assessed as inhibition of cell viability at 100 uM after 72 hrs by MTT assay; assay type: toxicity; details: astrocyte
Rattus norvegicus [2] = species: Rattus norvegicus; test: Cytotoxicity against Wistar rat primary astrocytes assessed as inhibition of cell viability at 250 uM after 72 hrs by MTT assay; assay type: toxicity; details: astrocyte
C6 [3] = test: Induction of necrosis in Wistar rat C6 cells assessed as lowering of cell density at 50 to 100 uM; assay type: functional, cell-based
[4] = Cytotoxicity against Wistar rat C6 cells assessed as decrease in cell viability at 100 uM after 48 hrs by MTT assay relative to control; assay type: functional
[5] = Cytotoxicity against Wistar rat C6 cells assessed as decrease in cell viability at 100 uM after 72 hrs by MTT assay relative to control; assay type: functional
C6 [6] = test: Induction of necrosis in Wistar rat C6 cells at 50 to 100 uM after 72 hrs by propidium iodide staining based fluorescence microscopic analysis; assay type: functional, cell-based
C6 [7] = test: Induction of necrosis in Wistar rat C6 cells assessed as change in cell morphology at 50 to 100 uM; assay type: functional, cell-based
C6 [8] = test: Cytotoxicity against Wistar rat C6 cells assessed as inhibition of cell viability at 5 uM after 72 hrs by MTT assay; assay type: functional, cell-based
C6 [9] = test: Cytotoxicity against Wistar rat C6 cells assessed as inhibition of cell viability at 50 uM after 48 hrs by MTT assay; assay type: functional, cell-based
C6 [10] = test: Cytotoxicity against Wistar rat C6 cells assessed as inhibition of cell viability at 50 uM after 72 hrs by MTT assay; assay type: functional, cell-based
C6 [11] = test: Cytotoxicity against Wistar rat C6 cells assessed as inhibition of cell viability at 25 uM after 48 hrs by MTT assay; assay type: functional, cell-based
C6 [12] = test: Cytotoxicity against Wistar rat C6 cells assessed as inhibition of cell viability at 25 uM after 72 hrs by MTT assay; assay type: functional, cell-based

## CSc1ccc(C2SCC(=O)N2c2ccccn2)cc1 (stereo not drawn)
Rattus norvegicus [1]
  Activity: Non-Toxic
Rattus norvegicus [2]
  Activity: Non-Toxic

## CSc1ccc(C2SCC(=O)N2Cc2ccccn2)cc1 (stereo not drawn)
C6 [3]
  Activity: Active
[4]
  Activity: 48%
Rattus norvegicus [1]
  Activity: Non-Toxic
[5]
  Activity: 75%
C6 [6]
  Activity: Active
Rattus norvegicus [2]
  Activity: Non-Toxic
C6 [7]
  Activity: Active
C6 [8]
  inhibition: Active

## CSc1ccc(C2SCC(=O)N2CCCN2CCCCC2)cc1 (stereo not drawn)
C6 [3]
  Activity: Active
[4]
  Activity: 52.2%
Rattus norvegicus [1]
  Activity: Non-Toxic
[5]
  Activity: 78%
C6 [6]
  Activity: Active
Rattus norvegicus [2]
  Activity: Toxic
C6 [7]
  Activity: Active
C6 [8]
  inhibition: Active

## CS(=O)(=O)c1ccc(C2SCC(=O)N2c2ccccn2)cc1 (stereo not drawn)
Rattus norvegicus [1]
  Activity: Non-Toxic
Rattus norvegicus [2]
  Activity: Non-Toxic

## CS(=O)(=O)c1ccc(C2SCC(=O)N2CCCN2CCCCC2)cc1 (stereo not drawn)
Rattus norvegicus [1]
  Activity: Non-Toxic
Rattus norvegicus [2]
  Activity: Non-Toxic

## Cn1nnc2c(C(N)=O)ncn2c1=O [TEMOZOLOMIDE]
[4]
  Activity: 42.3%
[5]
  Activity: 39.7%

## CCN(CC)CCCN1C(=O)CSC1c1ccc(SC)cc1 (stereo not drawn)
Rattus norvegicus [1]
  Activity: Non-Toxic
[5]
  Activity: 67.5%
Rattus norvegicus [2]
  Activity: Toxic

## CS(=O)(=O)c1ccc(C2SCC(=O)N2CCN2CCCCC2)cc1 (stereo not drawn)
Rattus norvegicus [1]
  Activity: Non-Toxic
Rattus norvegicus [2]
  Activity: Non-Toxic

## CS(=O)(=O)c1ccc(C2SCC(=O)N2c2ccc3c(c2)OCO3)cc1 (stereo not drawn)
Rattus norvegicus [1]
  Activity: Non-Toxic
Rattus norvegicus [2]
  Activity: Non-Toxic

## CSc1ccc(C2SCC(=O)N2CCN2CCCCC2)cc1 (stereo not drawn)
Rattus norvegicus [1]
  Activity: Non-Toxic
[5]
  Activity: 61%
Rattus norvegicus [2]
  Activity: Toxic

## CSc1ccc(C2SCC(=O)N2c2ccc3c(c2)OCO3)cc1 (stereo not drawn)
C6 [3]
  Activity: Active
[4]
  Activity: 61.2%
Rattus norvegicus [1]
  Activity: Non-Toxic
[5]
  Activity: 81.7%
C6 [9]
  inhibition: Active
C6 [6]
  Activity: Active
Rattus norvegicus [2]
  Activity: Non-Toxic
C6 [7]
  Activity: Active
C6 [10]
  inhibition: Active

## CSc1ccc(N2C(=O)CSC2c2ccc(S(C)(=O)=O)cc2)cc1 (stereo not drawn)
Rattus norvegicus [1]
  Activity: Non-Toxic
Rattus norvegicus [2]
  Activity: Non-Toxic

## CS(=O)(=O)c1ccc(C2SCC(=O)N2Cc2ccccn2)cc1 (stereo not drawn)
C6 [3]
  Activity: Active
[4]
  Activity: 47.2%
C6 [11]
  inhibition: Active
C6 [12]
  inhibition: Active
Rattus norvegicus [1]
  Activity: Non-Toxic
[5]
  Activity: 77%
C6 [6]
  Activity: Active
Rattus norvegicus [2]
  Activity: Non-Toxic
C6 [7]
  Activity: Active

## CSc1ccc(C2SCC(=O)N2c2ccc(SC)cc2)cc1 (stereo not drawn)
Rattus norvegicus [1]
  Activity: Non-Toxic
Rattus norvegicus [2]
  Activity: Non-Toxic

## CCN(CC)CCCN1C(=O)CSC1c1ccc(S(C)(=O)=O)cc1 (stereo not drawn)
Rattus norvegicus [1]
  Activity: Non-Toxic
Rattus norvegicus [2]
  Activity: Toxic
